Patent US6303596A, “Use of taurolidine for treatment of leukemias” (priority 2000, dated 2001)
Where two headings read alike, the source gives them in different places.

How the values were obtained:
tissue factor (TF) = test: LPS-induced tissue factor (TF) expression in MM6 cells, ELISA; type: cell-based, human; conditions: for inhibition of LPS-induced TF expression: 4 h
Protocol: FIG. 2A represents MM6 cells; FIG. 2B represents PBMC. The cells were induced with LPS (hatched bars: 100 ng/ml LPS in RPMI supplemented with 10% BCS (RPMI+10% BCS); solid bars: 10 ng/ml in AIM-V+0.01% BCS) in the presence of varying concentrations of taurolidine,or with a dilution of the vehicle equivalent to that given to cells receiving 100 μg/ml taurolidine. After four hours, cells were collected and lysates were prepared for TF ELISA. Data are expressed as percent of TF antigen measured in cells treated with LPS alone (no taurolidine or vehicle). Experiments were performed with duplicate samples and were repeated at least three times. Values shown are mean±SEM of all experiments.
All cells were cultured in a 5% CO2 atmosphere at 37° C. MM6 cells were grown in RPMI supplemented with 10% BCS, 2 mM L-glutamine, and 50 μg/ml gentamicin (RPMI+10% BCS). In some experiments, MM6 cells were rinsed once with HBSS without Ca^++ or Mg^++ and once with AIM-V before finally being resuspended in AIM-V supplemented with 0.01% BCS (AIM-V+0.01% BCS). […] AIM-V was supplemented with a low amount of BCS (0.01%) in order to provide a source of LPS-binding protein, which enhances the response of monocytic cells to LPS. […] HL-60, REH, and Jurkat were cultured in RPMI supplemented with 10% heat inactivated fetal bovine serum (FBS), 2 mM L-glutamine, and 50 μg/ml gentamicin. ECV304 were cultured in M199 supplemented with 10% FBS, mM L-glutamine, and 50 μg/ml gentamicin. GM5387 was cultured in MEM supplemented with 20% FBS, 2 mM L-glutamine, and 50 μg/ml gentamicin.
For induction of TF or TNFα expression, MM6 cells or PBMC were cultured either in RPMI supplemented with 10% BCS or in AIM-V+0.01% BCS, and stimulated by adding LPS to final concentrations of 10 to 100 ng/ml. […] Except as noted, taurolidine and LPS were added to the cell cultures simultaneously. For TF determination, cells and culture media together were treated by adding Triton X-100 (1% final) and EDTA (7 mmol/L final), and the resulting lysates assayed by ELISA. […] For TNFα determination, cells were removed by centrifugation for 5 min at 250×g, and the supernatants were assayed by ELISA.

granulocytes = test: TUNEL / propidium iodide flow cytometry, granulocytes; type: cell-based, human; conditions: for cytotoxicity at 100 µg/mL: Homo sapiens
Protocol: Human granulocytes were isolated from heparinized blood by diluting blood 1:1 with 6% dextran to sediment RBC, then centrifuging to obtain leukocyte rich plasma. The remaining RBC were lysed by 20 second incubation with 0.2% NaCl. After lysis, NaCl was added to a final concentration of 0.9%, the sample was centrifuged, and the cell pellet resuspended in HBSS containing 0.5% HSA. An equal volume of Histopaque (Sigma) was layered underneath the cell suspension. Upon centrifugation, the PBMC remained above the Histopaque layer, while the granulocytes were sedimented. Purity of collected granulocytes was assayed by flow cytometry using PE-conjugated […].
In the second method, DNA fragmentation was detected via TUNEL assay according to the manufacturer's instructions. With this methodology, 2×10^6 cells were fixed with 2% paraformaldehyde, permeabilized with 0.1% Triton X-100/0.1% citrate, incubated at 37° C. with terminal deoxynucleotidyl transferase and FITC-dUTP, rinsed and analyzed by flow cytometry. Enhanced FITC signal indicates apoptosis-specific DNA fragmentation. Gavriali, et al, "Identification of programmed cell death in situ via specific labeling of nuclear DNA fragmentation," J Cell Biol 119:493 (1992). Parallel aliquots of unfixed cells were treated with PI and FITC-conjugated anti-CD14 and analyzed by flow cytometry, in order to identify cells with permeable cell membranes (since PI binds to DNA but is excluded from cells with intact plasma membranes) and also to determine the cell-specificity of the apoptotic signal.
The effect of taurolidine on granulocytes was assayed by TUNEL analysis on taurolidine-treated purified granulocytes. These experiments were conducted in culture medium rather than whole blood. Granulocytes were treated with 100 μg/ml taurolidine since it had been shown that this concentration of taurolidine is apoptogenic to peripheral blood monocytes treated in culture medium. TUNEL-positive granulocytes ranged from 2% to 30% in untreated samples, and varied according to blood donor. […] Therefore, the apoptogenic effect of taurolidine is not specific to monocytic cells.
^a Analysis by flow cytometry after staining cells with PI and
processing for TUNEL. Data are mean ± SEM of 5 experiments.

In the case of `O=S1(=O)CCN(CN2CCS(=O)(=O)NC2)CN1` [taurolidine, 4,4'-methylenebis(perhydro-1,2,4-thiadiazin 1,1-dioxide)], the “inhibition of LPS-induced TF expression” value (tissue factor (TF); MM6, taurolidine 50 μg/ml or higher) is reported as “completely blocked”, the “inhibition of LPS-induced TF expression” value (tissue factor (TF); MM6, taurolidine 10 or 25 μg/ml) is reported as “little or no effect” and the “induction of TF expression (summary)” value (tissue factor (TF); PBMC, MM6 and granulocytes, LPS-induced) is reported as “blocked”. For the same compound, the apoptosis of granulocytes (granulocytes; 100 μg/ml taurolidine, within 6 h, culture medium) was 92%, the cytotoxicity at 100 µg/mL (granulocytes; 6 h, granulocytes, 100 μg/ml taurolidine, mean ± SEM of 5 experiments (Table VII), read-out: % propidium iodide positive) was 1.6 ± 0.5% and the cytotoxicity at 100 µg/mL (granulocytes; granulocytes, 100 μg/ml, 6 hours (Table V), read-out: % Propidium Iodide Positive Cells) was 2%. The “effectiveness in granulocytes relative to monocytes” value (granulocytes; TUNEL, purified cells in culture medium) was “at least as effective”, the “% TUNEL-positive” value (granulocytes; granulocytes, 100 μg/ml taurolidine, mean ± SEM of 5 experiments (Table VII)) was 91.5 ± 3.5% and the “% TUNEL-Negative Cells” value (granulocytes; granulocytes, 100 μg/ml, 6 hours (Table V)) was 8%.
